Laboratory results from patent US20090023645A1, “AIB1, a novel steroid receptor co-activator” (The Government of the United States of America as …, priority 1997, published 2009).

Legend:
ER = assay: transient transfection ER reporter (luciferase) transcription assay in COS-1 cells; type: cell-based; conditions: 100 nM 4-hydroxytamoxifen in place of 17β-estradiol
Protocol: COS-1 cells were transiently transfected with 250 ng ER expression vector (pHEGO-hyg), 10 ng of luciferase reporter plasmid (pGL3.luc.3ERE or 10 ng pGL3 lacking ERE) and increasing amounts of pcDNA3.1-AIB1 and incubated in the absence (open bars) or presence of 10 nM 17β-stradiol (E2, solid bars) or 100 nM 4-hydroxytamoxifen (hatched bars). Luciferase activity was expressed in relative luminescence units (RLU). The data are the mean of three determinations from one of four replicate experiments. Error bars indicate one standard deviation.
To determine whether expression of AIB1 increases ER ligand-dependent transactivation, transient transfection assays were performed. The effect of increasing levels of AIB1 on transcription of an ER dependent reporter was measured. […] This effect was not observed when the estrogen antagonist, 4-hydroxytamoxifen (4-OHT), was substituted for 17β-estradiol or when the estrogen response element (ERE) was removed from the reporter plasmid (FIG. 3).
To determine the effect of AIB1 on estrogen-dependent transcription, an ER reporter plasmid can be used. […] Reporter activities were determined using the Dual-Luciferase Reporter Assay System (Promega) and the results expressed in relative luminescence units (RLU; luciferase/Renilla luciferase). pRL-CMV and pGL3-promoter were obtained from Promega. pHEGO-hyg was obtained from ATCC. […]

metastatic tumor = assay: tamoxifen treatment of a patient whose metastatic breast tumor showed high AIB1 copy number; type: in vivo; conditions: one post-menopausal patient, ER/PR positive metastatic tumor with high AIB1 copy number
recurrent breast cancer = assay: response to tamoxifen therapy in patients with recurrent breast cancer and ER-positive primary tumors; type: in vivo
Protocol: Loss of estrogen receptor in recurrent breast caner is also associated with poor response to endocrine therapy. […] The frequency of hormone receptor status changes between primary and recurrent tumors and whether such a change might explain unresponsiveness to endocrine therapy was examined. Primary breast cancer samples and matched asynchronous recurrences were studied from 50 patients who had not received any adjuvant therapy. ER and progesterone receptor (PR) status was determined immunohistochemically from histologically representative formalin-fixed paraffin-embedded tumor samples. ER status was ascertained by mRNA in situ hybridization. Thirty-five (70%) of 50 primary tumors were positive for ER and 30 (60%) for PR. Hormone receptor status of the recurrent tumor differed from that of the primary tumor in 18 cases (36%). Discordant cases were due to the loss of ER (n=6), loss of PR (n=6), or loss of both receptors (n=6). Receptor-negative primary tumors were always accompanied by receptor-negative recurrences. Among 27 patients with ER-positive primary tumors, loss of ER was a significant predictor (P=0.0085) of poor response to subsequent endocrine therapy. […] Loss of ER expression in recurrent breast cancer predicts poor response to endocrine therapy in primarily ER-positive patients.

4-hydroxytamoxifen
AIB1 dose dependent increase in transcription when the ligand is substituted for 17β-estradiol (ER): not observed

CC/C(=C(\c1ccccc1)c1ccc(OCCN(C)C)cc1)c1ccccc1 [tamoxifen]
patient response to tamoxifen treatment (metastatic tumor): responded favorably | response rate to tamoxifen therapy (recurrent breast cancer; patients whose recurrent tumors retained ER expression (14 of 19)): 74% | response rate to tamoxifen therapy (recurrent breast cancer; patients with lost ER expression in the recurrent tumor (one of eight)): 12.5%
